# Experimental data taken from patent publication US10464930B2, “Compositions and methods for treating estrogen-related medical disorders” (THE BOARD OF TRUSTEES OF THE UNIVERSITY OF ILLINOIS, priority 2012, dated 2019).
# Where two headings read alike, the source gives them in different places.
# Key:
# [1] = system: LTP in the CA1 region of hippocampal sections; experiment: LTP after theta burst stimulation in hippocampal slices; design: species or system mouse; conditions: for end average potentiation of fEPSP (LTP): 30 min prior to TBS, slices of 16-month male 3×Tg mice
# Procedure: LTP was measured after TBS in the CA1 region of hippocampal sections from 16 month male 3×Tg mice or WT controls. Test compounds (SERMs 100 nM; G15 100 nM) were added 30 min prior to TBS. […] (C) Secondary analysis of theta bursts indicate action both during induction and stabilization of LTP, through a GPR30 dependent mechanism.
# LTP was measured after TBS in the CA1 region of hippocampal sections from 8 month old male C57Bl/6 mice. G15 (100 nM) was added 30 min prior to TBS and continued throughout. G15 had no effect on LTP, which reached levels equal to WT background in FIG. 2 for both controls and G15.
# LTP was measured in the CA1 region of hippocampal sections from 16 month male 3×Tg mice using the method detailed in manuscript, with the exception of a variable interburst interval during TBS. ODQ (10 nM) was added 30 min prior to TBS and continued throughout.
# Electrophysiology. All experiments used 16-month old male 3×Tg transgenic or age-matched WT background controls. For electrophysiology, mice were rapidly decapitated, and brains were removed into an ice-cold aCSF solution (in mM: NaCl 124, KCl 3.0, KH2PO4 1.25, NaHCO3 25.7, D-glucose 10, L-ascorbate 2.0, MgSO4 2.5, and CaCl2 3.3) and sectioned on a tissue chopper into 400 um sections. Slices were transported to a 37° C. solution of aCSF, continuously bubbled with 95% O2/5% CO2, and allowed to recover at least 60 min before experimentation. After placement of a stimulation electrode in the Schaffer commissural fibers and recording electrodes with 2 M NaCl solution into the stratum radiatum of the CA1 area, stimulus intensity was set to evoke submaximal fEPSP and continuously monitored at 20 s intervals for at least 15 min to establish a stable baseline. SERMs (100 nM) and G15 (100 nM) were prepared fresh in perfusate and started at least 30 min before LTP induction to reach a new baseline after enhancement of basal synaptic transmission was observed(97). LTP was induced using a theta burst induction protocol by applying 10 bursts of four pulses at 100 Hz with an interburst interval of 200 msec. Resulting fEPSP was monitored at 20 s intervals for […] post TBS.
# Long-term potentiation (LTP) in the CA1 field of the hippocampus is a well-studied cellular model for learning and memory. […] At 16 months, an advanced age at which Alzheimer's-like neuropathology is well developed in these animals, studies on LTP have not previously been reported. We observed a robust, reproducible deficit in LTP in these aged transgenic mice, with field excitatory post-synaptic potentials (fEPSP) showing an end average potentiation of 97.0±6.4% of baseline at 45 min post-TBS, compared to 134.7±10.3% observed in the wild type (WT) controls (FIG. 2A,B).
# To determine if drugs enhanced LTP by altering physiological responses during LTP induction, such as NMDA receptor-mediated currents or downstream events involved in expression or stabilization, the postsynaptic responses to theta bursts were quantified as previously described (56, 57).
# [2] = system: NO levels (NOx) in plasma and hippocampus; experiment: NOx measurement in plasma and CNS by chemiluminescence; format: in vivo, mouse; conditions: 2 mg/kg; for NOx in plasma or hippocampus, eNOS(−/−): eNOS(−/−) animals; for NOx in hippocampus and plasma, WT: one hour after injection, WT mice
# Procedure: Levels of NO were assessed by measuring breakdown products 1 h after i.p. injection of SERMs (2 mg/kg) using chemiluminescence detection.
# (§1) CNS Bioavailability & NOX Measurement. All experiments were performed on either male C57B1/6 mice (Charles River Laboratory) or eNOS(−/−) animals. Animals were injected (i.p.) at various time points before sacrifice at the doses specified. After euthanasia via CO2, plasma was collected, and cortices and hippocampi were collected after PBS perfusion and stored at −80° C. Tissue samples were weighed and extracted with methanol. Plasma samples were extracted with cold acetonitrile. Quantitative analysis of drug concentrations in plasma and brain used internal standards spiked into plasma and brain homogenates before liquid extraction with acetonitrile or methanol, and separation and measurement was performed with LC-MS/MS tandem mass spectrometry. The supernatant (deproteinized) was analyzed by chemiluminescence with SIEVERS 280i nitric oxide analyzer.
# (§2) Brain and plasma NO levels were assessed by measuring metabolic oxidation products, NO2^− and NO3^− (NOx), using chemiluminescence detection. […] To assess the relative contribution of eNOS, DMA and NO-DMA were administered to eNOS(−/−) animals.
# [3] = CNS bioavailability by LC-MS/MS; format: in vivo, mouse; conditions: 5 mg/kg i.p., up to 2 h after administration
# Procedure: as §1, §2
# [4] = system: scopolamine- or L-NAME-induced memory deficit; experiment: Step through passive avoidance (STPA); format: in vivo, mouse; conditions: for reversal of scopolamine-induced memory deficit (STPA latency): 2 mg/kg i.p. 20 min prior to training, scopolamine 1 mg/kg, C57Bl/6, 24 h; for reversal of L-NAME-induced cognitive deficit (STPA) / reversal of scopolamine-induced deficit in eNOS KO mice (STPA): 2 mg/kg; for reversal of L-NAME-induced cognitive deficit (STPA): L-NAME 50 mg/kg 30 min prior to training
# isolated aortic rings = experiment: Aortic ring relaxation
# [5] = system: clotting cascades (PT, aPTT); experiment: Anticoagulation: PT and aPTT after i.p. dosing; format: in vivo, mouse; conditions: for anticoagulation with impaired NOS function: 2 mg/kg 1 h prior, L-NAME 50 mg/kg 30 m prior to collection; for PT / aPTT / anticoagulant effect at 3 h: 2 mg/kg i.p.; for PT / aPTT: 1 h
# Procedure: Blood was collected by cardiac puncture and PTT and aPTT were determined 1 or 3 h after i.p. drug administration (2 mg/kg).
# Anticoagulation. SERMs were injected (i.p.) 1 h before blood collection, and L-NAME was injected (i.p.) 30 min before blood collection. The mouse was sedated by exposing it to CO2 until unconscious and blood was collected in 4.5 mL BD Vacutainer Glass Evacuated Blood Collection Tubes (with 0.105 M buffered sodium citrate) by cardiac puncture. The blood samples were centrifuged at 300 g for 30 min to separate the plasma from the blood, and then 200 uL of plasma was taken from each sample and the PT and aPTT were measured using an ACL 7000 Coagulation Analyzer. The analyzer injects […] of PT-fibrinogen (lyophilized rabbit brain calcium thromboplastin with stabilizers, polybrene, buffer and preservatives) to 75 μL of plasma sample to measure the PT, and 75 μL of synthAFAX (0.025 M)+100 μL of CaCl2 (0.02 M) were added to 75 μL of plasma to measure aPTT. The analysis was at 37° C. using a photo sensor at λ=671 nm.
# [6] = system: primary cortical neurons exposed to OGD; experiment: Oxygen glucose deprivation (OGD) neuroprotection, MTT; format: cell-based, rat; conditions: for neuroprotection (cell survival by MTT): 2 h OGD, survival at 24 h, SERMs 100 nM, normalized to E2 10 nM; for neuroprotective activity with GPR30 antagonist: plus G15 (100 nM); for neuroprotective activity with GPR blocker: plus pertussis toxin (100 ng/mL)
# ERα = target: T1, ERα (Homo sapiens, UniProt P03372); experiment: ER ligand binding by competitive E2 displacement (ERα)
# T1 sequence (P03372 1-595): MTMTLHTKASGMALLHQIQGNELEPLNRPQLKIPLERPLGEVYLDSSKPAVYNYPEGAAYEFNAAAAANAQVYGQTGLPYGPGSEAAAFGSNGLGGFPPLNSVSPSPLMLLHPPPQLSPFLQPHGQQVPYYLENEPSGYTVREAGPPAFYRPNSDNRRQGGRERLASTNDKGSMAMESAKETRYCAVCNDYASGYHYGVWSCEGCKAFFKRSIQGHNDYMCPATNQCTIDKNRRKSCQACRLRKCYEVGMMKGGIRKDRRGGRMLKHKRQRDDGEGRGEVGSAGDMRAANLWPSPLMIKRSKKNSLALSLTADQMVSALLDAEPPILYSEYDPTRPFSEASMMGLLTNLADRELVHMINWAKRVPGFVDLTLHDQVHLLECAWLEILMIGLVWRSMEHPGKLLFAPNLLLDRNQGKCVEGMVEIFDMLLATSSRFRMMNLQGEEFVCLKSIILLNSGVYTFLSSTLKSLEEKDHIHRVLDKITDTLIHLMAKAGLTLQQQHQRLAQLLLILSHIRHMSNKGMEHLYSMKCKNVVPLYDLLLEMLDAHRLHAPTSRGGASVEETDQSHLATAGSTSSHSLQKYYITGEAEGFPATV
# ERβ = ERβ (Homo sapiens, UniProt Q92731); experiment: ER ligand binding by competitive E2 displacement (ERβ)
# ERβ, sequence (Q92731 whole entry, species assumed): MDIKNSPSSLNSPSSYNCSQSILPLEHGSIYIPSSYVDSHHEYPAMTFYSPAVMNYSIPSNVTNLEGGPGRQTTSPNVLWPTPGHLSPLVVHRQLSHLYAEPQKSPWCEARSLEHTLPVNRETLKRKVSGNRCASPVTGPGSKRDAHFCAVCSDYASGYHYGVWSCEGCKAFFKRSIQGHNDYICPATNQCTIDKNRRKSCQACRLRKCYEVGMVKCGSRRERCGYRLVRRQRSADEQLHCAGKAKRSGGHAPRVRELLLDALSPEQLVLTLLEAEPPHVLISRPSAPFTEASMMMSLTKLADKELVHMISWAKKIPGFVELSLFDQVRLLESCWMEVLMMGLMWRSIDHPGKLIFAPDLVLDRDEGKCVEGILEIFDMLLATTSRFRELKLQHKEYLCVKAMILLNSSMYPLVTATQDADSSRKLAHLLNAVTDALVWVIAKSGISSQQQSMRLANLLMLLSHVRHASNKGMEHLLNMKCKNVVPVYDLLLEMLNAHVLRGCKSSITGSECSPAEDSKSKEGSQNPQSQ
# [7] = Rattus norvegicus, read-out: EC50 for relaxation
SMILES,"NOx in plasma or hippocampus, eNOS(−/−) [2]","NOx in hippocampus and plasma, WT [2]","enhancement of subsequent theta bursts during LTP induction ([1]; 100 nM, 3×Tg slices)",end average potentiation of fEPSP (LTP) ([1]; 100 nM),reversal of scopolamine-induced memory deficit (STPA latency) [4],reversal of L-NAME-induced cognitive deficit (STPA) [4],reversal of scopolamine-induced deficit in eNOS KO mice (STPA) [4],EC50 (isolated aortic rings; [7]) [nM],efficacy (relaxation) (isolated aortic rings; intact aortic rings) [%],anticoagulation with impaired NOS function [5],PT [5],aPTT [5],anticoagulant effect at 3 h [5],neuroprotection (cell survival by MTT) [6],neuroprotective activity with GPR30 antagonist [6],neuroprotective activity with GPR blocker [6],also measured
Brc1cc2c(cc1[C@@H]1Nc3ccccc3[C@@H]3C=CC[C@@H]31)OCO2 [Compound G15],,,,,,,,,,,,,,,,,"effect on LTP in WT slices ([1]; 100 nM, WT C57Bl/6 slices, absence of DMA): no effect"
"Oc1ccc(-c2sc3cc(O)ccc3c2Oc2ccc(OCCN3CCCCC3)cc2)cc1 [DMA, desmethylarzoxifene]",no effect,greater than twofold elevation,augmented,144.9±8.7 % of baseline,restored the cognitive deficit,not able to restore cognition,not able to restore cognition,3500 ± 2500,~100,did not persist in the presence of NOS blockade,increased PT,significantly increased,decreased to that of control samples,robust neuroprotection,blocked,blocked,"brain regional retention [3]: preferential retention in the hippocampus over the cortex; end fEPSP (LTP) with GPR30 blocker ([1]; DMA 100 nM plus G15 (100 nM), 3×Tg slices): 96.8±7.10%; effect on LTP with ODQ ([1]; plus ODQ (10 nM), 3×Tg slices, preliminary): ODQ blocks effect of DMA; efficacy after endothelium removal or NOS inhibition (isolated aortic rings; removal of the endothelium or L-NAME): significant decrease in the efficacy"
Oc1ccc2c(Oc3ccc(OCCN4CCCCC4)cc3)c(-c3ccc(F)cc3)sc2c1 [F-DMA],,,,,,,,,,,,,,,,,"IC50 (ERα; competitive E2 displacement): 17 ± 0.6 nM; EC50 (isolated aortic rings; read-out: EC50 for relaxation, intact aortic rings, mean, S.D.): 2400 ± 1200 nM"
"O=[N+]([O-])OCCCC1CCN(CCOc2ccc(Oc3c(-c4ccc(O)cc4)sc4cc(O)ccc34)cc2)CC1 [NO-DMA, 3-(1-(2-(4-(6-hydroxy-2-(4-hydroxyphenyl)benzo[b]thiophen-3-yloxy)phenoxy)ethyl)piperidin-4-yl)propyl nitrate]",increase NOx significantly,greater than twofold elevation,augmented,144.2±5.2 % of baseline,equivalent restoration of protection to DMA,reversed only by NO-DMA,only NO-DMA showed efficacy,130 ± 90,,significant anticoagulation compared to control,"increased PT, but only NO-DMA reached significance",significantly increased,remained significantly higher than control,robust neuroprotection identical to DMA,blocked,blocked,"IC50 (ERβ): 24.4 ± 9.6 nM; IC50 (ERα): 21.4 ± 6.7 nM; EC50 (isolated aortic rings; Rattus norvegicus, read-out: EC50 for relaxation, L-NAME): 1000 ± 540 nM; EC50 (isolated aortic rings; Rattus norvegicus, read-out: EC50 for relaxation, endothelium-denuded): 900 ± 690 nM; maximal relaxation response (isolated aortic rings; intact aortic rings): induced maximal relaxation; potency relative to DMA (isolated aortic rings; intact aortic rings): at least ten-fold increased potency; neuroprotection with ERα blockade ([6]; plus ICI 182780 (100 nM), added 45 min prior to OGD): did not block this effect; attenuation of neuroprotective activity by NOS antagonist ([6]; plus L-NAME (100 μM)): ineffective; attenuation of neuroprotective activity by PI3K inhibitor ([6]; plus LY294002 (10 μM)): effective"
COc1ccc(-c2sc3cc(O)ccc3c2Oc2ccc(OCCN3CCCCC3)cc2)cc1 [arzoxifene],,,,,restored the cognitive deficit,,,3300 ± 2500,,,,,,,,,
"O=C(c1ccc(OCCN2CCCCC2)cc1)c1c(-c2ccc(O)cc2)sc2cc(O)ccc12 [raloxifene, Raloxifene]",,,,,restored the cognitive deficit,,,4000 ± 2900,~100,,,,,,,,
